pIC50: −log10 of the molar value.
How the values were obtained:
1205Lu tumors = experiment: Western blot of mouse tumor lysates; assay type: in vivo, mice; conditions: tumor lysates 17 days following treatment
From the text: Error bars represent SEM, n = 10 mice. […] Histone H3 served as loading control.
We next determined the expression levels of PIM1, −2 and −3 in two mouse tumors from the in vivo combination experiment shown in Figure 6A. Tumor samples were collected following 3 days of treatment and PIM expression levels were not consistently changed across treatment groups; however, the presence of PLX4720 correlated with higher PIM2 levels (Figure 6B). To understand signaling changes leading to our observed drug response in vivo, western blot analyses were then conducted on tumor lysates isolated 17 days following treatment (Figure 6C).
For immunoblots, proteins were extracted as described in [49], and 50 μg of cell extract were resolved on a 10% polyacrylamide-SDS gel before being transferred onto a polyvinylidene membrane (BioRad, Hercules, CA). All primary antibodies were purchased from Cell Signaling Technologies (Beverly, MA), except for the PIM1 antibody, which was purchased from Abcam (Cambridge, MA). All membranes were probed with primary antibodies overnight at 4°C, then incubated with Alexa Fluor-labeled secondary antibodies (IRDye 680LT goat-anti mouse, IRDye 800CW goat-anti rabbit (LI-COR, Lincoln, NE)) for 1h and scanned with the Odyssey system (LI-COR, Lincoln, NE). […]

[1] = in vivo
AML xenografts = conditions: cited from earlier work
PIM1 = conditions: cited from earlier work
[2] = tested on: Melanoma cells and normal fibroblasts; experiment: alamarBlue proliferation assay, adherent cultures, 72 h; assay type: cell-based, human; conditions: increasing doses, normalized to DMSO
[3] = tested on: Melanoma cell lines and normal fibroblasts; experiment: propidium iodide staining (cell death); assay type: cell-based; conditions: 10 μM, 72 h
[4] = tested on: 1205Lu, WM983B, and 451Lu; experiment: Western blot of adherent (2D) melanoma cells; assay type: cell-based, human; conditions: 10 μM, 12 h
[5] = tested on: collagen-embedded melanoma spheroids; experiment: LIVE/DEAD viability/cytotoxicity assay on 3D spheroids; conditions: SGI-1776 [5 μM] or AZD6482 [10 μM] as single agents or in combination, 72 h
pAKTSer473 = experiment: Western blot for AZD6482 target inhibition; assay type: cell-based, human; conditions: increasing doses, 72 h
Procedure: Since PIM kinases and AKT share common downstream effectors, we hypothesized that inhibiting both PIM and PI3K activity would prevent pathway compensation, enhance melanoma cell death compared to each single agent, and maintain low activity of AKT and STAT3.
Supplementary Figure S5: AZD6482 target inhibition. Increasing doses of the PI3Kβ inhibitor AZD6482 were used to treat melanoma cells for 72 h before lysates were collected and probed for pAKTSer473 and total protein. Hsp90 was used as a loading control. […]
combination. To facilitate statistical analysis of synergy effects, we used a grid-like design of constant ratio drug combinations. Viability was calculated relative to DMSO controls in each plate and the mean of three experiments provided. Synergy was calculated for combination experiments using the Bliss formula. […]
observed combination effects. […]

SMILES	p27Kip1 levels (1205Lu tumors)	total mouse weight / toxic effects [1]	tumor regression (AML xenografts)	pIC50 (PIM1)	proliferation response (alamarBlue), melanoma cell lines versus fibroblasts [2]	cell death / cytotoxicity (propidium iodide) [3]	levels of downstream PIM kinase signaling effectors [4]	total levels of PIM1, −2, or −3 [4]	spheroid invasion and cell death (LIVE/DEAD) [5]	AKT inhibition (pAKTSer473) (pAKTSer473)
CN1CCC(CNc2ccc3ncc(-c4cccc(OC(F)(F)F)c4)n3n2)CC1 [SGI-1776]	elevated p27Kip1 levels	minimal effects on total mouse weight	concentration-dependent tumor regressions	[…]	[…]	significantly increased cell death in the melanoma cell lines compared to normal fibroblasts	downregulation of pBADS136, pSTAT3Y705, and pAKTS473 levels were observed	does not dramatically reduce total levels	inhibit spheroid invasion and cause cell death	
Cc1cc([C@@H](C)Nc2ccccc2C(=O)O)c2nc(N3CCOCC3)cc(=O)n2c1 [AZD6482]									inhibit spheroid invasion and cause cell death	confirming AKT inhibition

From PMC5342389, “PIM kinases as therapeutic targets against advanced melanoma” (Oncotarget, 2016)
